Tested on: hypoxia-induced VEGF production in HeLa cells
Test: cells
Assay type: cell-based, human
Details: Homo sapiens, HeLa

SMILES | EC50 [nM]
COc1ccc(C2c3[nH]c4ccc(S(C)(=O)=O)cc4c3CCN2C(=S)Oc2ccc(C)cc2)cc1 (stereo not shown) [Compound 1503] | > 1000
COc1ccc(C2NCCc3c2[nH]c2ccc(S(C)(=O)=O)cc32)cc1 (stereo not shown) [Compound 1504] | > 1000
COc1ccc(C2c3[nH]c4ccc(Cl)cc4c3CCN2C(=O)[C@H](Cc2ccccc2)NC(C)=O)cc1 (stereo partly shown) [Compound 1505] | > 1000
CC(=O)N[C@@H](Cc1ccccc1)C(=O)N1CCc2c([nH]c3ccc(Cl)cc23)C1c1ccc(OCCN2CCOCC2)cc1 (stereo partly shown) [Compound 1506] | > 1000
O=C(/C=C/c1ccccc1)N1CCc2c([nH]c3ccc(Cl)cc23)C1c1ccc(OCCCn2cncn2)cc1 (stereo not shown) [Compound 1508] | 8 to 40
C/C=C/C(=O)N1CCc2c([nH]c3ccc(Cl)cc23)C1c1ccc(OCCCN2CCOCC2)cc1 (stereo not shown) [Compound 1509] | 40 to 200
C/C=C/C(=O)N1CCc2c([nH]c3ccc(Cl)cc23)C1c1ccc(OCCCn2cncn2)cc1 (stereo not shown) [Compound 1510] | 8 to 40
CCOC(=O)N1CCc2c([nH]c3ccc(C#N)cc23)C1c1ccc(OC)cc1 (stereo not shown) [Compound 1512] | 200 to 1000
COc1ccc(C2c3[nH]c4ccc(C#N)cc4c3CCN2C(=O)Oc2ccc(Cl)cc2)cc1 (stereo not shown) [Compound 1513] | 40 to 200
COc1ccc(C2c3[nH]c4ccc(C#N)cc4c3CCN2C(=O)Oc2ccc(F)cc2)cc1 (stereo not shown) [Compound 1514] | 40 to 200
COc1ccc(C2c3[nH]c4ccc(C#N)cc4c3CCN2C(=S)Oc2ccc(F)cc2)cc1 (stereo not shown) [Compound 1515] | 40 to 200
COc1ccc(OC(=O)N2CCc3c([nH]c4ccc(C#N)cc34)C2c2ccc(OC)cc2)cc1 (stereo not shown) [Compound 1516] | 200 to 1000
COc1ccc(C2NCCc3c2[nH]c2ccc(C#N)cc32)cc1 (stereo not shown) [Compound 1519] | > 1000
CCOC(=O)N1CCc2c([nH]c3cccc(Br)c23)C1c1ccc(OC)cc1 (stereo not shown) [Compound 1521] | 200 to 1000
COc1ccc(C2c3[nH]c4cccc(Br)c4c3CCN2C(=O)OCCF)cc1 (stereo not shown) [Compound 1522] | 200 to 1000
CC#CCOC(=O)N1CCc2c([nH]c3cccc(Br)c23)C1c1ccc(OC)cc1 (stereo not shown) [Compound 1523] | 40 to 200
COc1ccc(C2c3[nH]c4cccc(Br)c4c3CCN2C(=O)Oc2ccc(F)cc2)cc1 (stereo not shown) [Compound 1524] | 40 to 200
COc1ccc(C2c3[nH]c4cccc(Br)c4c3CCN2C(=O)Oc2ccc(Cl)cc2)cc1 (stereo not shown) [Compound 1525] | 40 to 200
COc1ccc(C2c3[nH]c4cccc(Br)c4c3CCN2C(=O)Oc2ccc(Br)cc2)cc1 (stereo not shown) [Compound 1526] | 40 to 200
COc1ccc(OC(=O)N2CCc3c([nH]c4cccc(Br)c34)C2c2ccc(OC)cc2)cc1 (stereo not shown) [Compound 1527] | 200 to 1000
COc1ccc(C2c3[nH]c4cccc(Br)c4c3CCN2C(=O)Oc2ccccc2Cl)cc1 (stereo not shown) [Compound 1528] | > 1000
COc1ccc(C2c3[nH]c4cccc(Cl)c4c3CCN2C(=O)OCCF)cc1 (stereo not shown) [Compound 1529] | 200 to 1000
CC#CCOC(=O)N1CCc2c([nH]c3cccc(Cl)c23)C1c1ccc(OC)cc1 (stereo not shown) [Compound 1530] | 40 to 200
COc1ccc(C2c3[nH]c4cccc(Cl)c4c3CCN2C(=O)Oc2ccc(Cl)cc2)cc1 (stereo not shown) [Compound 1531] | 40 to 200
COc1ccc(C2c3[nH]c4cccc(Cl)c4c3CCN2C(=O)Oc2ccc(Br)cc2)cc1 (stereo not shown) [Compound 1532] | 40 to 200

SMILES | EC50 [nM]
COc1ccc(C2c3[nH]c4cccc(Cl)c4c3CCN2C(=O)Oc2ccc(F)cc2)cc1 (stereo not shown) [Compound 1533] | 40 to 200
COc1ccc(OC(=O)N2CCc3c([nH]c4cccc(Cl)c34)C2c2ccc(OC)cc2)cc1 (stereo not shown) [Compound 1534] | 200 to 1000
O=C(Oc1ccc(Cl)cc1)N1CCc2c([nH]c3ccc(Cl)cc23)C1c1ccc(OCCCN2CCC(O)CC2)cc1 (stereo not shown) [Compound 1537] | < 8
O=C(Oc1ccc(C2NCCc3c2[nH]c2ccc(Cl)cc32)cc1)c1ccccc1 (stereo not shown) [Compound 1540] | 8 to 40
CC(C)=CC(=O)N1CCc2c([nH]c3ccc(Cl)cc23)C1c1ccc(OCCCn2cncn2)cc1 (stereo not shown) [Compound 1542] | < 8
CCOC(=O)N1CCc2c([nH]c3ccc(Cl)cc23)C1c1ccc(OCC#N)cc1 (stereo not shown) [Compound 1543] | < 8
N#CCOc1ccc(C2c3[nH]c4ccc(Cl)cc4c3CCN2C(=O)OCCF)cc1 (stereo not shown) [Compound 1544] | 8 to 40
N#CCOc1ccc(C2c3[nH]c4ccc(Cl)cc4c3CCN2C(=O)Oc2ccc(F)cc2)cc1 (stereo not shown) [Compound 1548] | 8 to 40
N#CCOc1ccc(C2NCCc3c2[nH]c2ccc(Cl)cc32)cc1 (stereo not shown) [Compound 1550] | 200 to 1000
CS(=O)(=O)CCCOc1ccc(C2c3[nH]c4ccc(Cl)cc4c3CCN2C(=O)Oc2ccc(Cl)cc2)cc1 (stereo not shown) [Compound 1551] | < 8
CN1CCC(OCCCOc2ccc(C3c4[nH]c5ccc(Cl)cc5c4CCN3C(=O)Oc3ccc(Cl)cc3)cc2)CC1 (stereo not shown) [Compound 1554] | > 1000
O=C(Oc1ccc(Cl)cc1)N1CCc2c([nH]c3ccc(Cl)cc23)C1c1ccc(OCCCOCCN2CCOCC2)cc1 (stereo not shown) [Compound 1555] | < 8
C[Si](C)(C)CCS(=O)(=O)N1CCC(Oc2ccc(C3NCCc4c3[nH]c3ccc(Cl)cc43)cc2)CC1 (stereo not shown) [Compound 1556] | 40 to 200
CCOC(=O)N1CCc2c([nH]c3ccc(Cl)cc23)[C@@H]1c1ccc(Oc2ncccn2)cc1 [Compound 1573] | < 8
CCOC(=O)N1CCc2c([nH]c3ccc(Cl)cc23)[C@@H]1c1ccc(Oc2cnccn2)cc1 [Compound 1574] | < 8
CCOC(=O)N1CCc2c([nH]c3ccc(Cl)cc23)[C@@H]1c1ccc(Oc2ccc3ccccc3n2)cc1 [Compound 1575] | < 8
CC#CCOC(=O)N1CCc2c([nH]c3ccc(Cl)cc23)C1c1ccc(OC2CCOCC2)cc1 (stereo not shown) [Compound 1576] | < 8
CC#CCOC(=O)N1CCc2c([nH]c3ccc(Cl)cc23)C1c1ccc(OC2CCN(S(=O)(=O)CC[Si](C)(C)C)CC2)cc1 (stereo not shown) [Compound 1579] | < 8
C[Si](C)(C)CCS(=O)(=O)N1CCC(Oc2ccc(C3c4[nH]c5ccc(Cl)cc5c4CCN3C(=O)Oc3ccc(F)cc3)cc2)CC1 (stereo not shown) [Compound 1580] | < 8
C[Si](C)(C)CCS(=O)(=O)N1CCC(Oc2ccc(C3c4[nH]c5ccc(Cl)cc5c4CCN3C(=O)Oc3ccc(Cl)cc3)cc2)CC1 (stereo not shown) [Compound 1581] | < 8
Clc1ccc2[nH]c3c(c2c1)CCN(c1ncccn1)C3c1ccc(OC2CCOCC2)cc1 (stereo not shown) [Compound 1582] | < 8
C[Si](C)(C)CCS(=O)(=O)N1CCC(Oc2ccc(C3c4[nH]c5ccc(Cl)cc5c4CCN3c3ncccn3)cc2)CC1 (stereo not shown) [Compound 1583] | < 8
COc1ccc(C2c3[nH]c4ccc(Cl)cc4c3CCN2c2nc(C)cs2)cc1 (stereo not shown) [Compound 1584] | < 8
CCOC(=O)c1csc(N2CCc3c([nH]c4ccc(Cl)cc34)C2c2ccc(OC)cc2)n1 (stereo not shown) [Compound 1585] | < 8
COc1ccc(C2c3[nH]c4ccc(Cl)cc4c3CCN2c2nc(O)cs2)cc1 (stereo not shown) [Compound 1586] | 40 to 200

SMILES | EC50 [nM]
COc1ccc(C2c3[nH]c4ccc(Cl)cc4c3CCN2c2nc(C(C)(C)C)cs2)cc1 (stereo not shown) [Compound 1587] | < 8
COc1ccc(C2c3[nH]c4ccc(Cl)cc4c3CCN2c2nc(C)c(C(=O)N(C)C)s2)cc1 (stereo not shown) [Compound 1588] | 40 to 200
COc1ccc(C2c3[nH]c4ccc(Cl)cc4c3CCN2c2nc(C(F)(F)F)cs2)cc1 (stereo not shown) [Compound 1589] | < 8
COc1ccc(C2c3[nH]c4ccc(Cl)cc4c3CCN2c2nc(-c3ccccn3)cs2)cc1 (stereo not shown) [Compound 1590] | 8 to 40
COc1ccc(-c2csc(N3CCc4c([nH]c5ccc(Cl)cc45)C3c3ccc(OC)cc3)n2)cc1 (stereo not shown) [Compound 1591] | < 8
COc1ccc(C2c3[nH]c4ccc(Cl)cc4c3CCN2c2nc(-c3cccnc3)cs2)cc1 (stereo not shown) [Compound 1592] | 40 to 200
COc1ccc(C2c3[nH]c4ccc(Cl)cc4c3CCN2C(=N)SC2CCCC2=O)cc1 (stereo not shown) [Compound 1593] | 40 to 200
COc1ccc(C2c3[nH]c4ccc(Cl)cc4c3CCN2c2nc(-c3ccncc3)cs2)cc1 (stereo not shown) [Compound 1594] | 40 to 200
COc1ccc(C2c3[nH]c4ccc(Cl)cc4c3CCN2c2nc(-c3ccsc3)cs2)cc1 (stereo not shown) [Compound 1595] | 8 to 40
COc1ccc(C2c3[nH]c4ccc(Cl)cc4c3CCN2c2nc(CC(C)=O)cs2)cc1 (stereo not shown) [Compound 1596] | 8 to 40
COc1ccc(C2c3[nH]c4ccc(Cl)cc4c3CCN2c2nc(-c3ccc(Cl)cc3)cs2)cc1 (stereo not shown) [Compound 1597] | < 8
COc1ccc(C2c3[nH]c4ccc(Cl)cc4c3CCN2c2nc(-c3ccccc3)cs2)cc1 (stereo not shown) [Compound 1598] | < 8
COc1ccc(C2c3[nH]c4ccc(Cl)cc4c3CCN2c2nc(-c3ccccc3)c(C(=O)c3ccc(Cl)cc3)s2)cc1 (stereo not shown) [Compound 1600] | < 8
COc1ccc(C(=O)c2sc(N3CCc4c([nH]c5ccc(Cl)cc45)C3c3ccc(OC)cc3)nc2-c2ccccc2)cc1 (stereo not shown) [Compound 1601] | < 8
CC#CCOC(=O)N1CCc2c([nH]c3ccc(Cl)cc23)[C@@H]1c1ccc(OC2CCOCC2)cc1 [Compound 1603] | < 8
CC#CCOC(=O)N1CCc2c([nH]c3ccc(Cl)cc23)[C@@H]1c1ccc(OC2CCN(S(=O)(=O)CC[Si](C)(C)C)CC2)cc1 [Compound 1606] | < 8
C[Si](C)(C)CCS(=O)(=O)N1CCC(Oc2ccc([C@H]3c4[nH]c5ccc(Cl)cc5c4CCN3C(=O)Oc3ccc(F)cc3)cc2)CC1 [Compound 1607] | < 8
C=CCOc1ccc([C@H]2c3[nH]c4ccc(Cl)cc4c3CCN2P(=O)(OCC)OCC)cc1 [Compound 1608] | > 1000
C=CCOc1ccc([C@H]2c3[nH]c4ccc(Cl)cc4c3CCN2C(=O)OCC2CCCC2)cc1 [Compound 1609] | < 8
CCOC(=O)N1CCc2c([nH]c3ccc(Cl)cc23)[C@@H]1c1ccc(OCCCNCC2CCCO2)cc1 (stereo partly shown) [Compound 1610] | 40 to 200
CCOC(=O)N1CCc2c([nH]c3ccc(Cl)cc23)[C@@H]1c1ccc(OCCC(O)CNC(=O)CC)cc1 (stereo partly shown) [Compound 1615] | 8 to 40
CCOC(=O)N1CCc2c([nH]c3ccc(Cl)cc23)[C@@H]1c1ccc(OCCC(O)CNC(=O)C(C)C)cc1 (stereo partly shown) [Compound 1616] | 8 to 40
CCOC(=O)N1CCc2c([nH]c3ccc(Cl)cc23)[C@@H]1c1ccc(OCCC(O)CNC(=O)c2cccnc2)cc1 (stereo partly shown) [Compound 1617] | 8 to 40
